Test results published in patent US20230241226A1, “COMPOUNDS FOR TARGETED DEGRADATION OF CARRIER PROTEINS AND USES THEREOF” (CeMM - Forschungszentrum für Molekulare Medizin GmbH, priority 2019, published 2023).

Biological target: T1, SLC9A1 (Homo sapiens, UniProt P19634)
T1 construct: endogenous in cells; host or cells: HAP1, KBM7 (WT and CRBN knockout)
Experiment: Degradation of endogenous SLC9A1 (immunoblot)
Format: cell-based
Description: (B) HAP1 and KBM7 cells were treated with different concentrations of d9A1-2.
(C)Both WT and CRBN knockout KBM7 cell lines were treated with 1 µM d9A1-2 for 16 hours.
(D) Chemical “rescue” of d9A1-2 driven degradation. WT KBM7 cell lines were treated with 0.5 µM d9A1-2 for 16 hours. These cells were also treated with bortezomib (bort. 0.25 µM), MG-132 (MG, 1 µM), MLN4924 (MLN,1 µM), pomalidomide (poma., 1 µM), or bafilomycin A1 (bafi., 10 µM). All molecules, apart from bafilomycin, could rescue SLC9A1 from degradation.
(B) HAP1 cells were treated with a dose curve of the warhead, d9A1-1, d9A1-2, d9A1-3, d9A1-4, for 24 hours.
(C) KBM7 cells were treated with varying concentrations of d9A1-2.
HEK293T, LS180 were obtained from ATCC (Manassas, VA, USA), HAP1 WT, HAP1 -/-SLC38A2 (HZGHC001975c003), HAP1 -/-SLC38A9 (HZGHC000777c011) were obtained from Horizon Genomics. Other cell lines utilized here: CAKI (a gift of Georg Winter’s lab), SW620, SW480 (both a gift from Walter Berger’s lab, Medical University Vienna), LOVO, HCT15 (both a gift from Chris Gasche), KBM7 (a gift from Thijn Brummelkamp’s lab), KBM7 -/- CRBN was described in Mayor-Ruiz et al. Cells were cultured, according to the ATCC recommendation in DMEM, RPMI or IMDM medium (Gibco) supplemented with 10% (v/v) FBS and antibiotics (100 U/ml penicillin and […] streptomycin). Knock-in single cell clones of dTAG-HA SLC38A2 HAP1 cell line were generated as previously described. For starvation, culture media was replaced with media without amino acids or FBS.
For immunoblotting, whole cell extracts were prepared using RIPA lysis buffer (25 mM Tris/HCl pH 7.6, 150 mM NaCl, 1% NP-40, 1% sodium deoxycholate, 0.1% SDS, EDTA-free protease inhibitor (Roche) and phosphatase inhibitors 2+3 (Sigma- Aldrich)). Cell extracts were incubated for 15 min on ice in 50 µL RIPA buffer. Lysates were cleared by centrifugation (20,000 g, 10 min, 4° C.). Protein extracts were quantified and normalized using the BCA assay (Thermo Scientific). Where indicated, cleared lysates where treated with the enzyme PNGase (NEB) to deglycosylate the proteins. Lämmli Sample Buffer 4x was added to protein extract samples without boiling. Cell lysates were run on SDS-polyacrylamide gel in tris-glycine running buffer and transferred to nitrocellulose membranes Amersham Protran 0.45 µm (GE Healthcare), according to standard methods. The membranes were incubated with the antibodies indicated below and visualized with horseradish peroxidase-conjugated secondary antibodies (described below) using the ECL Western blotting system (Thermo Scientific). The following antibodies were used: GAPDH (Santa Cruz, sc-365062), Actin (Cyoskeleton Inc., #AAN01), HA (Covance, cat #MMS-101R), HA (Cell Signaling, #3724), HA7-HRP (Sigma, H6533), HA (Roche, #11867423001), SLC9A1 (Santa Cruz, sc-136239), SLC2A1 (Cell Signaling, #12939), SLC38A1 (Cell Signaling, #36057). Secondary antibody for imaging goat anti-Rat IgG Alexa Fluor 488 (ThermoFisher, A11006). The following secondary antibodies were used for immunoblotting: goat anti-mouse HRP (115-035-003, Jackson ImmunoResearch) and goat anti-rabbit HRP (111-035-003, Jackson ImmunoResearch).
MG132, Bortezomib, Pomalidomide were obtained from Selleckchem. MLN4924 was obtained from MedchemExpress. Bafilomycin was obtained from Enzo Life Sciences. dTAG13 was a generous gift from the Nathanael Gray laboratory, Dana Farber Cancer Institute. The d9A1 degrader series (warhead, d9A1-1 to d9A1-4) was synthesized by Wuxi AppTec. All chemicals were dissolved in DMSO (Sigma-Aldrich) and utilized at the concertation described in respective figures.

T1 sequence (P19634 whole entry): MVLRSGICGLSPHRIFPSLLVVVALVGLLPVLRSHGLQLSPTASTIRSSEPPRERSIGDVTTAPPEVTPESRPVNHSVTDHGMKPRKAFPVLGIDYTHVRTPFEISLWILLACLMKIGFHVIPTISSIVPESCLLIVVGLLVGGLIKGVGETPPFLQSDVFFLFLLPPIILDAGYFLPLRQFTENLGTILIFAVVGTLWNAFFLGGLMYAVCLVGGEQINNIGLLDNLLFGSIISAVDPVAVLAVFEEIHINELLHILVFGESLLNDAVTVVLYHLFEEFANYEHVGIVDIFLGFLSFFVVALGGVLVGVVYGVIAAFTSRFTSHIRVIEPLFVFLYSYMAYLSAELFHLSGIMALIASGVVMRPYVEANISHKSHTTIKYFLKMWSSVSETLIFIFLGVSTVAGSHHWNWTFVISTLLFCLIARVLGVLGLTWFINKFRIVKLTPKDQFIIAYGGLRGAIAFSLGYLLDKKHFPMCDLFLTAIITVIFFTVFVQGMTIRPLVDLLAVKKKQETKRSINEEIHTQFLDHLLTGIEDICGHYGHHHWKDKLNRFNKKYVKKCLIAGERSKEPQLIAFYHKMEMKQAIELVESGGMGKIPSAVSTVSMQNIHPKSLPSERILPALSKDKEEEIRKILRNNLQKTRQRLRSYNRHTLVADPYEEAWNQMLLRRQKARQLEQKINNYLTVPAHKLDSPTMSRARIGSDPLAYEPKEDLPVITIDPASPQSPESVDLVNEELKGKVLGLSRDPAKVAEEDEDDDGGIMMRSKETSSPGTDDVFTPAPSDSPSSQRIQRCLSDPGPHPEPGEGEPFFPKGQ

## Cc1cc(-c2ccc(C(=O)NCCOCCOCCOCCOCCNc3cccc4c3C(=O)N(C3CCC(=O)NC3=O)C4=O)cc2N2CCC(c3[nH]cnc3C)CC2)ccc1F (centres unmarked) [d9A1-2]
HAP1 and KBM7 cells
  degradation of endogenous SLC9A1: degradation of endogenous SLC9A1 at sub-micromolar concentration
HAP1 and KBM7 cells, different concentrations
  time within which degradation of SLC9A1 was observed: ≤ 8 h
HAP1 cells, 24 hours
  SLC9A1 degradation, dose curve: most effective
KBM7 WT and CRBN knockout, 1 µM, 16 hours
  SLC9A1 degradation in WT and CRBN knockout cells: observed in WT but not CRBN knockout
KBM7 cells, varying concentrations, 5, 7, 9 or 12 hours
  SLC9A1 expression, time course: Reduction of SLC9A1 expression was observed
